Laboratory results as given in ChEMBL document CHEMBL3046927, “Synthesis and herbicidal activity of novel 5-chloro-3-fluoro-2-phenoxypyridines with a 1,3,4-oxadiazole ring” (J Pestic Sci, 2011).

Assays:
Avena fatua = assay: Post-emergence herbicidal activity against Avena fatua at 125 g ai/ha measured after 3 weeks post compound treatment; format: functional
Triticum aestivum = assay: Phytotoxicity against Triticum aestivum (wheat) plants assessed as crop damage at 125 g ai/ha measured after 3 weeks post compound treatment; format: organism-based; settings: in vivo, 504 h
Sorghum halepense = assay: Post-emergence herbicidal activity against Sorghum halepense (Johnson grass) at 125 g ai/ha measured after 3 weeks post compound treatment; format: functional
Hordeum vulgare = assay: Phytotoxicity against Hordeum vulgare (barley) plants assessed as crop damage at 125 g ai/ha measured after 3 weeks post compound treatment; format: organism-based; settings: in vivo, 504 h
Echinochloa crus-galli = assay: Post-emergence herbicidal activity against Echinochloa crus-galli (barnyard grass) at 125 g ai/ha measured after 3 weeks post compound treatment; format: functional

Structure (SMILES) | Activity (Avena fatua) [%] | Activity (Triticum aestivum) [%] | Activity (Sorghum halepense) [%] | Activity (Hordeum vulgare) [%] | Activity (Echinochloa crus-galli) [%]
C[C@@H](Oc1ccc(Oc2ncc(Cl)cc2F)cc1)c1nnc(SCc2ccccc2)o1 | 25 | 0 | 20 | 0 | 35
C[C@@H](Oc1ccc(Oc2ncc(Cl)cc2F)cc1)c1nnc(SCc2ccc(Cl)nc2)o1 | 30 | 0 | 30 | 0 | 40
C[C@@H](Oc1ccc(Oc2ncc(Cl)cc2F)cc1)c1nnc(SC(=O)c2ccccc2)o1 | 35 | 0 | 40 | 0 | 55
CCOC(=O)Sc1nnc([C@@H](C)Oc2ccc(Oc3ncc(Cl)cc3F)cc2)o1 | 45 | 0 | 40 | 0 | 60
CC(Sc1nnc([C@@H](C)Oc2ccc(Oc3ncc(Cl)cc3F)cc2)o1)C(=O)O (stereo not given in full) | 70 | 0 | 60 | 15 | 70
C[C@@H](Oc1ccc(Oc2ncc(Cl)cc2F)cc1)c1nnc(SCC(=O)O)o1 | 50 | 0 | 45 | 15 | 60
CSc1nnc([C@@H](C)Oc2ccc(Oc3ncc(Cl)cc3F)cc2)o1 | 70 | 5 | 60 | 15 | 80
CCSc1nnc([C@@H](C)Oc2ccc(Oc3ncc(Cl)cc3F)cc2)o1 | 75 | 5 | 60 | 15 | 85
CCCCSc1nnc([C@@H](C)Oc2ccc(Oc3ncc(Cl)cc3F)cc2)o1 | 65 | 5 | 55 | 10 | 80
CCCCCSc1nnc([C@@H](C)Oc2ccc(Oc3ncc(Cl)cc3F)cc2)o1 | 55 | 0 | 50 | 5 | 70
C[C@@H](Oc1ccc(Oc2ncc(Cl)cc2F)cc1)c1nnc(SCC(N)=O)o1 | 40 | 0 | 40 | 0 | 45
CC(O)CSc1nnc([C@@H](C)Oc2ccc(Oc3ncc(Cl)cc3F)cc2)o1 (stereo not given in full) | 35 | 0 | 30 | 0 | 40
C#CCSc1nnc([C@@H](C)Oc2ccc(Oc3ncc(Cl)cc3F)cc2)o1 | 95 | 0 | 80 | 0 | 100
C#CCOC(=O)[C@@H](C)Oc1ccc(Oc2ncc(Cl)cc2F)cc1 [CLODINAFOP PROPARGYL] | 85 | 0 | 80 | 35 | 100
